Where two headings read alike, the source gives them in different places.
Columns and labels:
Type in all cases: biochemical, Escherichia coli
[1] = test system: protein synthesis in E. coli S30 extract, PANOx system; assay: Cell-free protein synthesis in the PANOx system (standard reaction mixture)
Procedure: A standard reaction mixture for a coupled transcription-translation reaction, herein referred to as the PANOx system (Kim and Swartz (2001), supra.) contains the following components: 57 mM HEPES-KOH (pH7.5), 1.2 mM ATP, 0.85 mM each of GTP, UTP and CTP, 1 mM DTT, 200 mM potassium glutamate, 80 mM ammonium acetate, 16 mM magnesium acetate, 34 μg/ml folinic acid, 170.6 μg/ml E. coli tRNA mixture, 13.3 μg/ml plasmid, 100 μg/ml T7 RNA polymerase, 2 mM each of 20 unlabeled amino acids, 11 μM [^14C]leucine, 2% Poly(ethylene glycol) 8000, 33 mM PEP, 0.33 mM nicotinamide adenine dinucleotide, 0.26 mM Coenzyme A, 2.7 mM sodium oxalate and 0.24 volumes of S30 extract. Prokaryotic cell-free protein synthesis is performed using a crude S30 extract derived from Escherichia coli K12 (strain A19 ΔtonA ΔtnaA ΔspeA ΔendA met+), with slight modifications from the protocol of Pratt, J. M. 1984. (Coupled transcription-translation in prokaryotic cell-free systems. In Transciption and translation: a practical approach. Hanes, B. D., and S. J. Higgins. (Eds.). p. 179-209. IRL Press, New York.) T7 RNA polymerase was prepared from E. coli strain BL21 (pAR1219) according to the procedures of Davanloo et al. 1984. (Cloning and expression of the gene for bacteriophage T7 RNA polymerase. Proc Natl Acad Sci USA 81:2035-2039.)
(§1) Reactions were incubated at 37° C. for 5-6 hours. The amount of synthesized protein is estimated from the measured TCA-insoluble radioactivities using a liquid scintillation counter (Beckman LS3801). (Kim et al. 1996). Soluble protein yields were determined as previously described. (Kim and Swartz 2000).

[2] = test system: CAT expression in E. coli S30 extract cell-free protein synthesis
Procedure: as §1

[3] = test system: oxidative phosphorylation (electron transport chain); assay: CAT synthesis in new system with inhibitor of oxidative phosphorylation, oxygen or argon headspace; settings: 20 μl batch, 37° C., 5 hours
Procedure: In seeking to understand how this yield was accomplished, inhibitors of oxidative phosphorylation were tested to establish that this process was partially responsible for the protein production capability of this new technology. […] HQNO inhibits the electron transport chain part of oxidative phosphorylation. All cases are 20 μl batch reactions, and were incubated at 37° C. for 5 hours. The head spaces of the batch reactors were filled with either oxygen or argon, an inert gas. […]. Furthermore, protein synthesis should be unaffected upon the addition of HQNO in the cases where argon is present and oxygen is not available.

N[C@@H](CCC(=O)[O-])C(=O)[O-].[Mg+2] [magnesium glutamate]
optimal magnesium value in the standard reaction mixture ([1]; standard reaction mixture, includes Mg from cell extract): 23.3 mM

O=C(CC(=O)C(F)(F)F)c1cccs1 [thenoyltrifluoroacetone]
protein synthesis yields in the PANOx system with inhibitor of oxidative phosphorylation ([1]; PANOx system): unaffected

O=[N+]([O-])c1ccc(O)c([N+](=O)[O-])c1 [2,4-dinitrophenol]
protein synthesis yields in the PANOx system with inhibitor of oxidative phosphorylation ([1]; PANOx system): unaffected

N#CC(C#N)=NNc1cccc(Cl)c1 [carbonyl-cyanide-m-chlorophenylhydrazone]
protein synthesis yields in the PANOx system with inhibitor of oxidative phosphorylation ([1]; PANOx system): unaffected

CC(C)(COP(=O)(O)OP(=O)(O)OC[C@H]1O[C@@H](n2cnc3c(N)ncnc32)[C@H](O)[C@@H]1OP(=O)(O)O)[C@@H](O)C(=O)NCCC(=O)NCCS [CoA, Coenzyme A]
effect of removal of the cofactor on relative protein production ([2]; Cytomim system, CAT, 15 μl, 6 hours): no significant effect

[N-]=[N+]=[N-] [azide]
protein synthesis yields in the PANOx system with inhibitor of oxidative phosphorylation [1]: unaffected

[Mg+2] [magnesium]
optimum magnesium concentration for protein expression ([2]; new environment, with 33 mM sodium pyruvate, includes Mg from cell extract): approximately 11 mM

CCCCCCCc1cc(O)c2ccccc2[n+]1[O-] [HQNO, 2-heptyl-4-hydroxyquinoline-N-oxide]
CAT synthesis after inhibitor addition ([3]; argon headspace): unaffected
CAT synthesis after inhibitor addition ([3]; presence of oxygen, with or without pyruvate): substantially decreases

CC(=O)[O-].CC(=O)[O-].[Mg+2] [magnesium acetate]
optimal magnesium value in the standard reaction mixture [1]: 19.3 mM

— patent US8357529B2, “Methods of in vitro protein synthesis” (The Board of Trustees of the Leland Stanford Junior …, priority 2002, dated 2013)
